Test results as given in US7994204B2, “Binding inhibitor of sphingosine-1-phosphate” (Taisho Pharmaceutical Co., Ltd, priority 2006, dated 2011).

Legend:
human Edg-1 (S1P1) = biological target: T1, human Edg-1 (S1P1) (Homo sapiens, UniProt P21453); assay: S1P1 binding inhibition test (membrane, [33P]-S1P); settings: for inhibition at 10 µM: compound 10 μM, [33P]-S1P 0.1 nM, human Edg-1 (S1P1) HEK-293 membrane fraction, read-out: Binding test (membrane) % inhibition (10 μM); for IC50: membrane system binding test, various concentrations
T1 construct: expressed in transfected cells; host or cells: HEK-293
Summary of the method: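 Membranes from Edg-1 (S1P1)-expressing HEK-293 cells incubated 1 h at 30 °C in pH 7.4 Tris buffer with 0.1 nM [33P]-S1P and compound (10^−5 M, or various concentrations for IC50). Filter-bound radioactivity counted; background from non-transfected HEK-293 membranes; inhibition = [1−(A−C)/(B−C)]×100.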

T1 sequence (P21453 whole entry): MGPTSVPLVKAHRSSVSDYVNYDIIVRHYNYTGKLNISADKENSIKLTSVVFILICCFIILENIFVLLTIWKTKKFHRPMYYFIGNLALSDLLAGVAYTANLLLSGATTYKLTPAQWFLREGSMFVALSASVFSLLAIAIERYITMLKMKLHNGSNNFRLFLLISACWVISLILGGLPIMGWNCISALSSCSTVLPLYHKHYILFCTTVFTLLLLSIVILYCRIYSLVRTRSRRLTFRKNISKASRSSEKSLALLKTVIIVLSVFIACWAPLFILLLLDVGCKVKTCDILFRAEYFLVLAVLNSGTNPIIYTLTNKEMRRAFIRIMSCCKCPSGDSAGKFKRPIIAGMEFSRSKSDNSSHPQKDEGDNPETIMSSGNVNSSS

| Structure (SMILES) | melting point | inhibition at 10 µM (human Edg-1 (S1P1)) | IC50 (human Edg-1 (S1P1)) |
| --- | --- | --- | --- |
| CCn1c(C(NS(=O)(=O)c2ccc(Cl)c(Cl)c2)C(C)C)cnc1Oc1ccc(F)cc1 (centres unmarked) [Compound 221] | 101 to 102 °C | 52.6% |  |
| CCn1c(C(C)NS(=O)(=O)c2ccc(Cl)c(Cl)c2)cnc1OC(C)C (centres unmarked) [Compound 222] | 178 to 180 °C | 87.6% |  |
| CCCOc1ncc(C(C)NS(=O)(=O)c2ccc(Cl)c(Cl)c2)n1CC (centres unmarked) [Compound 223] | 181 to 183 °C | 92.1% |  |
| CCn1c(C(C)NS(=O)(=O)c2ccc(Cl)c(Cl)c2)cnc1OCC(F)(F)F (centres unmarked) [Compound 224] | 133.5 to 134.5 °C | 87% |  |
| CCc1nc(Oc2ccc(F)cc2)n(CC)c1C(C)NS(=O)(=O)c1ccc(Cl)c(Cl)c1 (centres unmarked) [Compound 225] | 122 to 124 °C | 98.9% |  |
| C#CCCCOc1ncc(C(C)NS(=O)(=O)c2ccc(Cl)c(Cl)c2)n1CC (centres unmarked) [Compound 226] | 172.5 to 173.5 °C | 91.5% |  |
| CCn1c(C(C)NS(=O)(=O)c2ccc(Cl)c(Cl)c2)cnc1OCCCN1CCOCC1 (centres unmarked) [Compound 228] | 160.5 to 162.5 °C | 96% |  |
| CCn1c(C(C)NS(=O)(=O)c2ccc(Cl)c(Cl)c2)cnc1Oc1ccc(OCCN(C)C)cc1 (centres unmarked) [Compound 229] | 106 to 107 °C | 99% | ≤ 0.07 µM |
| CCn1c(C(C)NS(=O)(=O)c2ccc(Cl)c(Cl)c2)cnc1OCc1ccccc1 (centres unmarked) [Compound 230] | 102 to 103 °C | 90.7% |  |
| CCn1c(C(C)NS(=O)(=O)c2ccc(Cl)c(Cl)c2)cnc1OC1CCC1 (centres unmarked) [Compound 231] | 162 to 163 °C | 97.4% |  |
| CCn1c(Oc2ccc(F)cc2)nc(Br)c1C(C)NS(=O)(=O)c1ccc(Cl)c(Cl)c1 (centres unmarked) [Compound 232] | 128.5 to 129.5 °C | 92.3% |  |
| CCn1c(C(C)NS(=O)(=O)c2ccc(Cl)c(Cl)c2)cnc1OCCCCCCN(C)C (centres unmarked) [Compound 235] | 137.5 to 142.5 °C | 94% | 0.0585 µM |
| CCn1c(C(C)NS(=O)(=O)c2ccc(Cl)c(Cl)c2)cnc1Oc1cccc(NC(C)=O)c1 (centres unmarked) [Compound 236] | 213.5 to 215.5 °C | 96.8% | ≤ 0.07 µM |
| C=CCCCOc1ncc(C(C)NS(=O)(=O)c2ccc(Cl)c(Cl)c2)n1CC (centres unmarked) [Compound 237] | 152.5 °C | 93.1% |  |
| CCn1c(C(C)NS(=O)(=O)c2ccc(Cl)c(Cl)c2)cnc1OCCCOC (centres unmarked) [Compound 239] | 151.5 to 152.5 °C | 95.9% |  |
| CCn1c(C(C)NS(=O)(=O)c2ccc3cc(C)ccc3c2)cnc1Oc1cccc(N2CCN(C)CC2)c1 (centres unmarked) [Compound 242] | 175 to 177 °C | 94.5% |  |
| CCn1c(C(C)NS(=O)(=O)c2ccc3ccc(Cl)cc3c2)cnc1Oc1cccc(N2CCN(C)CC2)c1 (centres unmarked) [Compound 243] | 135 to 136 °C | 97.4% |  |
| CCn1c(C(C)NS(=O)(=O)c2ccc3c(c2)CCC3)cnc1Oc1cccc(N2CCN(C)CC2)c1 (centres unmarked) [Compound 244] | 160 to 162 °C | 98.3% | 0.0325 µM |
| CCn1c(C(C)NS(=O)(=O)/C=C/c2ccccc2)cnc1Oc1cccc(N2CCN(C)CC2)c1 (centres unmarked) [Compound 245] | 141 to 143 °C | 98.9% |  |
| CCn1c(C(C)NS(=O)(=O)c2ccc3c(Cl)ccc(Cl)c3c2)cnc1Oc1cccc(N2CCN(C)CC2)c1 (centres unmarked) [Compound 246] | 220 to 223 °C | 101% | ≤ 0.015 µM |
| CCn1c(C(C)NS(=O)(=O)c2ccc3cccc(Cl)c3c2)cnc1Oc1cccc(N2CCN(C)CC2)c1 (centres unmarked) [Compound 247] | 196 to 198 °C | 99.9% | ≤ 0.015 µM |
| CCn1c(C(C)NS(=O)(=O)c2ccc(Cl)c(Cl)c2)cnc1S(=O)(=O)c1ccc(C)cc1 (centres unmarked) [Compound 252, 3,4-Dichloro-N-{1-[3-ethyl-2-(toluene-4-sulfonyl)-3H-imidazol-4-yl]-ethyl}-benzenesulfonamide] | 180 to 183 °C | 52.5% |  |
